# Columns and labels:
# HepG2 cells = assay: Anti-proliferative activity on HepG2 cell line (CellTiter-Glo); format: cell-based, human
# Procedure: (§1) DMEM medium, penicillin/streptomycin antibiotics were purchased from Wisent, and fetal bovine serum was purchased from Biosera. CellTiter-Glo (chemiluminescent cell viability assay reagent) reagent was purchased from Promega. The HepG2 cell line was purchased from the Cell Bank of the Chinese Academy of Sciences. Nivo multimode microplate reader (PerkinElmer).
# HepG2 cells (liver cancer) were seeded in a white 384-well plate with […] of cell suspension per well containing 1000 HepG2 cells. The cell plate was incubated overnight in a carbon dioxide incubator. The compound to be tested was 3-fold diluted to the ninth concentration with a multi-channel pipette, that is, the compound to be tested was diluted from 200 µM to 30 nM, and an experiment for the sample assayed in duplicate was set up. […] of culture medium was added to the middle plate. According to the corresponding position, […] per well of the gradient-diluted compound was transferred to the middle plate, then […] per well was transferred to the cell plate after mixing well. […] Another cell plate was prepared, and the signal value as the maximum value (Max value in the following equation) was read on the day of drug addition to participate in data analysis. […] A multimode microplate reader was used for reading. […] A multimode microplate reader was used for reading. […]
# Hep3B cells = assay: Anti-proliferative activity on Hep3B cell line (CellTiter-Glo); format: cell-based
# Procedure: as §1, with “EMEM” for “DMEM”, “Hep3B” for “HepG2”
# Hep3B cells (liver cancer) were seeded in a white 96-well plate with 80 μL of cell suspension per well containing 3000 Hep3B cells. The cell plate was incubated overnight in a carbon dioxide incubator. The compound to be tested was 5-fold diluted to the ninth concentration with a multi-channel pipette, that is, the compound to be tested was diluted from 2 mM to 5.12 nM, and an experiment for the sample assayed in duplicate was set up. 78 μL of culture medium was added to the middle plate. According to the corresponding position, 2 µL per well of the gradient-diluted compound was transferred to the middle plate, then 20 μL per well was transferred to the cell plate after mixing well. […] Another cell plate was prepared, and the signal value as the maximum value (Max value in the following equation) was read on the day of drug addition to participate in data analysis. […] A multimode microplate reader was used for reading. […] A multimode microplate reader was used for reading. […]
# [1] = system: HepG2-luc orthotopic xenograft tumor; assay: In vivo pharmacodynamics on orthotopic xenograft tumor model of human liver cancer HepG2; design: species or system Balb/C nude mice; details: for Bioluminescence (Day 1) / Bioluminescence (Day 21): mean, n=6 (Table 8); for Bioluminescence (Day 21) / RBL (Day 21), relative tumor signal growth value / T/C (%) (Day 21) / TGI (%) (Day 21) / T/Cweight (%) / Tumor weight (Day 21): Day 21; for T/Cweight (%): TWtreatment/TWvehicle; for Tumor weight (Day 21): mean ± SEM, n=6
# Procedure: In this experiment, orthotopic xenograft tumor model of HepG2 in a nude mouse was used to evaluate the anti-tumor effect of the compound.
# Female Balb/C nude mice, 6 to 8 weeks old, weighing 18 to 22 g, fetal bovine serum […], EMEM medium (Cat. No. 30-2003), phosphate buffer, Antibiotic-Antimycotic (Cat. No. 15240-062), Matrigel, and trypsin.
# 1. Preparation of cell culture: HepG2-luc cells were cultured in monolayer in vitro. The culture conditions were that 10% heat-inactivated fetal bovine serum was added to EMEM medium and the cells were cultured in an incubator containing 5% CO2 at 37° C. Digestion with trypsin-EDTA was performed twice a week for passaging. When the cell saturation was 80% to 90%, the cells were digested with trypsin-EDTA, counted, and resuspended in PBS and Matrigel (PBS: Matrigel=1:1), and the density was 166.67×10^6 cells/mL.
# 2. Tumor cell inoculation and grouping: Animals were anesthetized by intramuscular injection of 60 mg/kg Zoletil 50 and 1.5 mg/kg xylazine. When the animals were under deep anesthesia, the animals were properly fixed, and the abdomen skin was cleaned with 75% alcohol cotton balls. An incision of about 10 mm was cut with surgery, and 0.03 mL (PBS: Matrigel=1:1) of HepG2-luc cells was orthotopically inoculated on the left lobe of the liver of each mouse, and then the incision on the muscle layer was sutured with absorbable catgut, and the incision on the skin was sutured with a stapler. After surgery, the animals were kept warm on a warming blanket until they woke up. To relieve the pain of the animals, 2 mg/kg of meloxicam (administered subcutaneously once a day) would be administered for 3 consecutive days after surgery. 15 animals were randomly selected to detect the growth of the signal. When the signal began to rise, animals were randomly divided into groups according to the value of the bioluminescence signal, and the administration of the drug was started.
# (§2) The experimental indicator is whether the tumor growth can be delayed or whether the tumor can be cured. After tumor inoculation, the bioluminescence signal and animal weight were detected once a week, which continued until the end of the observation period. The bioluminescence signal value can be used to calculate T/C (wherein T is the administration group, and C is the average intensity value of bioluminescence of the blank control group at the set time). Calculation formula of tumor growth inhibition rate (TGI): TGI (%)=[1−(Ti−T0)/(Vi−V0)]×100, wherein Ti is the average intensity of bioluminescence of the treatment group at the set time; T0 is the average intensity of bioluminescence at the starting point of administration. Vi is the average intensity of bioluminescence of the blank control group at the set time; V0 is the average intensity of bioluminescence at the starting point of administration.
# b. Tumor growth inhibition was calculated by T/Cweight=TWtreatment/TWvehicle.
# c. The p values were obtained by analyzing the tumor weight using one-way ANOVA between the vehicle group and the treatment groups.
# [2] = Animal weight change in the HepG2 orthotopic xenograft model; format: in vivo, Balb/C nude mice; details: 1 and 3 mg/kg IV
# Excerpt: as §2
# [3] = Group 2, 1 mg/kg IV Day 0, 7, 14
# [4] = Group 3, 3 mg/kg IV Day 0, 7, 14
compound,measurement,setting,value
O=[N+]([O-])c1cc2c(cc1Oc1cccnc1F)[C@H](OP(=O)(N1CC1)N1CC1)COC2 [Compound of formula (I)],anti-proliferative activity on HepG2 (in words),HepG2 cells; HepG2 with high expression of AKR1C3,excellent anti-proliferative activity
same,IC50,"HepG2 cells; Homo sapiens, 120 h, HepG2 (high expression of AKR1C3), 5 days incubation",7.4 nM
same,anti-proliferative activity on Hep3B (in words),Hep3B cells; Hep3B with low expression of AKR1C3,no anti-proliferative activity
same,IC50,"Hep3B cells; Homo sapiens, 72 h, Hep3B (low expression of AKR1C3), 3 days incubation",> 10000 nM
same,inhibitory effect on tumor growth (in words),"[1]; 1 mg/kg, after 21 days of administration",significant inhibitory effect on tumor growth
same,Bioluminescence (Day 1),[1]; [3],3.51E+09 photons/second
same,Bioluminescence (Day 21),[1]; [3],4.35E+09 photons/second
same,Bioluminescence signal value of tumor tissue,"[1]; Group 2, 1 mg/kg IV, 0 days after administration (Table 10)",1.47E+09 photons/second
same,Bioluminescence signal value of tumor tissue,"[1]; Group 2, 1 mg/kg IV, 7 days after administration (Table 10)",4.34E+09 photons/second
same,Bioluminescence signal value of tumor tissue,"[1]; Group 2, 1 mg/kg IV, 14 days after administration (Table 10)",4.76E+09 photons/second
same,Bioluminescence signal value of tumor tissue,"[1]; Group 2, 1 mg/kg IV, 21 days after administration (Table 10)",4.52E+09 photons/second
same,"RBL (Day 21), relative tumor signal growth value","[1]; Group 2, 1 mg/kg IV",0.98
same,T/C (%) (Day 21),"[1]; Group 2, 1 mg/kg IV",10.04%
same,TGI (%) (Day 21),"[1]; Group 2, 1 mg/kg IV",96.97%
same,T/Cweight (%),"[1]; Group 2, 1 mg/kg IV",15.80%
same,Tumor weight (Day 21),"[1]; Group 2, 1 mg/kg IV",0.090 ± 0.036 g
same,Bioluminescence (Day 1),[1]; [4],3.51E+09 photons/second
same,Bioluminescence (Day 21),[1]; [4],1.81E+09 photons/second
same,Bioluminescence signal value of tumor tissue,"[1]; Group 3, 3 mg/kg IV, 0 days after administration (Table 10)",1.47E+09 photons/second
same,Bioluminescence signal value of tumor tissue,"[1]; Group 3, 3 mg/kg IV, 7 days after administration (Table 10)",2.77E+09 photons/second
same,Bioluminescence signal value of tumor tissue,"[1]; Group 3, 3 mg/kg IV, 14 days after administration (Table 10)",2.59E+09 photons/second
same,Bioluminescence signal value of tumor tissue,"[1]; Group 3, 3 mg/kg IV, 21 days after administration (Table 10)",2.16E+09 photons/second
same,"RBL (Day 21), relative tumor signal growth value","[1]; Group 3, 3 mg/kg IV",0.41
same,T/C (%) (Day 21),"[1]; Group 3, 3 mg/kg IV",4.22%
same,TGI (%) (Day 21),"[1]; Group 3, 3 mg/kg IV",106.21%
same,T/Cweight (%),"[1]; Group 3, 3 mg/kg IV",10.23%
same,Tumor weight (Day 21),"[1]; Group 3, 3 mg/kg IV",0.058 ± 0.013 g
same,"inhibitory effect on tumor growth (conclusion, in words)","[1]; HepG2 orthotopic model, 1 and 3 mg/kg IV",significant inhibitory effect on tumor growth
same,anti-tumor effect (in words),[1]; dose increased to 3 mg/kg,significantly enhanced
same,animal weight in the administration group (in words),[2],does not decrease significantly

# Source: patent US20250171474A1, “CRYSTAL FORM OF […]” (Zhejiang Yangli Pharmaceutical Technology Co., Ltd., priority 2022, published 2025)
